Results taken from patent publication US9889113B2, “Method for reversing, preventing, delaying or stabilizing soft tissue calcification” (Panion & BF Biotech, Inc., priority 2006, dated 2018).

What was measured:
Assay type in all cases: in vivo, human
[1] = system: patients with end stage renal disease (ESRD); test: Serum creatinine level in the open-label extension of the Phase II study; conditions: several patients who received 6 g/day
Description: Glomerular filtration rate (GFR) level correlates with structural kidney damage and is used as a golden standard to measure kidney function. GFR can be estimated by the biomarkers serum creatinine. As renal function deteriorates, kidney lost its function to excrete creatinine effectively and lead to creatinine retention in the body. Therefore, increase of serum creatinine indicates lowering GFR and is an important sign of kidney deterioration.
In an open-label extension of a Phase II clinical study: “randomized, double-blind, placebo-controlled, dose-ranging study of the effects of ferric citrate on serum phosphate in patients with end stage renal disease (ESRD)”, some of the patients were administered 2-6 g/day of ferric citrate and serum creatinine level was monitored to assess kidney function.

[2] = system: cornea calcification in end stage renal disease patients; test: Cornea calcification by slit-lamp photographs and Image J analysis, Phase II and open-label extension; conditions: for 1st eye test Calcified area on cornea (%): baseline
Method: Eye examinations were carried out by using a slit-lamp microscope which was connected to a digital camera (NIKON E995). Calcifications in the cornea occur close to the nasal and temporal sides of the corneal limbus and look like the band keratopathy of hypercalcemia. Observer photographed the inner side (close to nasal), outer side (close to temporal) or took a full view of the cornea where calcification was found (FIG. 6).
An image analysis software called “Image J” was used for data analysis. The image analysis software is developed to display, edit, analyze, process, save and print 8-bit, 16-bit and 32-bit images. It can calculate area and pixel value statistics of user-defined selections, measure distances and angles, and create density histograms and line profile plots. It supports standard image processing functions such as contrast manipulation, sharpening, smoothing, edge detection and median filtering. The software is developed at the Research Services Branch of the National Institute of Mental Health, an institute of the National Institutes of Health (NIH). The software can be downloaded from the NIH website.
The image analysis software is able to measure calcified area and total cornea area that are subjectively defined by the user. To estimate calcified area, the observer first loads the patient's eye picture on to the image software, crops the specific calcified region, and the software will measure the defined section accordingly (defined as how many pixels in that area). […] To estimate the size of the full cornea, the observer used the image software to crop a 90 degrees fan-shape area on the available cornea region on the picture subjectively, and then let the software calculate the size of this fan-shape area to represent ¼ of the full cornea. By multiply the number by four, the observer then got an estimate of total cornea area.
The severity of cornea calcification was evaluated based on the percentage of the cornea surface occupied by calcification, i.e. % inner side calcification+% outer side calcification, wherein inner or outer side calcification is calculated as (calcified area on inner or outer cornea/total cornea area)×100.
In this study, patients were referred to ophthalmic department for eye examination before and after ferric citrate treatment. All patients had their 1st eye examination few days before or on the first dosing day of the Phase II trial (baseline value for cornea calcification). The time for 2nd eye examination was varied. Some were examined right after the Phase II study and some were examined during the OLE period. Nonetheless, disregarding when the 2nd eye examination was taken, it must be obtained after a defined consecutive days of ferric citrate administration in order to be considered as valid value for determinating the effects of ferric citrate on the cornea calcification changes.
All patients from the ferric citrate Phase II clinical trial were followed with a drug free period for various length of time, and some patients then participated in the open-label extension treatment period. Each participating patients received two eye examinations performed by an ophthalmologist. Depending on the dates of the first and second eye examinations and the corresponding drug dosing period, not all participating patients can generate usable information. The accepted patients were those who had received consecutive dosing for at least 21 days. The period between the first and second eye examination was at least as long as the dosing period. The actual interval between the two eye examinations was not relevant for the purpose of this evaluation since the longer the time between the first and second eye examination, the higher the possibility of cornea calcification development, not the other way around. […]

[3] = system: patients with end stage renal disease (ESRD) on hemodialysis; test: Randomized, double-blind, placebo-controlled, dose-ranging study of ferric citrate on serum phosphate, Ca and Ca×PO4; conditions: Day 28; 2, 4, 6 g/day TID vs placebo
[4] = 11 patients on active treatment (22 eye values)
[5] = Subject 2-01-1-002, Left eye, 2 g/day, treatment 28 days, interval between tests 61 days
[6] = Subject 2-01-1-002, Right eye, 2 g/day, treatment 28 days, interval between tests 61 days
[7] = Subject 2-01-1-004, Left eye, 6 g/day, treatment 28 days, interval between tests 78 days
[8] = Subject 2-01-1-004, Right eye, 6 g/day, treatment 28 days, interval between tests 78 days
[9] = Subject 2-01-1-006, Left eye, 6 g/day, treatment 28 days, interval between tests 50 days
[10] = Subject 2-01-1-006, Right eye, 6 g/day, treatment 28 days, interval between tests 50 days
[11] = Subject 2-01-1-009, Left eye, 4 g/day, treatment 28 days, interval between tests 50 days
[12] = Subject 2-01-1-009, Right eye, 4 g/day, treatment 28 days, interval between tests 50 days
[13] = Subject 2-01-1-012, Left eye, 2 g/day, treatment 28 days, interval between tests 66 days
[14] = Subject 2-01-1-012, Right eye, 2 g/day, treatment 28 days, interval between tests 66 days
[15] = Subject 2-01-1-018, Left eye, 6 g/day, treatment 28 days, interval between tests 75 days
[16] = Subject 2-01-1-018, Right eye, 6 g/day, treatment 28 days, interval between tests 75 days
[17] = Subject 2-01-1-022, Left eye, 6 g/day, treatment 57 days, interval between tests 217 days
[18] = Subject 2-01-1-022, Right eye, 6 g/day, treatment 57 days, interval between tests 217 days
[19] = Subject 2-01-1-042, Left eye, 6 g/day, treatment 42 days, interval between tests 199 days
[20] = Subject 2-01-1-042, Right eye, 6 g/day, treatment 42 days, interval between tests 199 days
[21] = Subject 2-01-1-048, Left eye, 4 g/day, treatment 28 days, interval between tests 186 days
[22] = Subject 2-01-1-048, Right eye, 4 g/day, treatment 28 days, interval between tests 186 days
[23] = Subject 2-01-1-050, Left eye, 6 g/day, treatment 33 days, interval between tests 198 days
[24] = Subject 2-01-1-050, Right eye, 6 g/day, treatment 33 days, interval between tests 198 days
[25] = Subject 2-01-1-068, Left eye, 6 g/day, treatment 34 days, interval between tests 202 days
[26] = Subject 2-01-1-068, Right eye, 6 g/day, treatment 34 days, interval between tests 202 days

O=C([O-])CC(O)(CC(=O)[O-])C(=O)[O-].[Fe+3] [ferric citrate]
serum creatinine level [1]: trend of decreased serum creatinine level
average change of worsened eye cornea calcification values ([2]; 10 worsened eye values of 11 actively treated patients): +2.20%
average change of improved eye cornea calcification values ([2]; 11 improved eye values of 11 actively treated patients): −2.07%
number of eye cornea calcification values that exhibited improvement [2, 4]: 11
number of eye cornea calcification values that remained unchanged [2, 4]: one
number of eye cornea calcification values that exhibited worsened results ([2]; 11 patients on active treatment (22 eye values), 2-6 g/day, 28 to 57 days): 10
effect on cornea calcification conditions (overall) ([2]; ESRD patients, 2-6 g/day): appears to delay or improve cornea calcification conditions
cornea calcification after treatment (FIG. 10) ([2]; Patient ID 2-01-1-012, 2 g/day, treatment period 28 days): improved cornea calcification
2nd eye test Calcified area on cornea (%) [2, 5]: 3.75%
Difference between 1st and 2nd tests (%) [2, 5]: −0.15%
1st eye test Calcified area on cornea (%) [2, 5]: 3.90%
2nd eye test Calcified area on cornea (%) [2, 6]: 0.00%
Difference between 1st and 2nd tests (%) [2, 6]: 0.00%
1st eye test Calcified area on cornea (%) [2, 6]: 0.00%
2nd eye test Calcified area on cornea (%) [2, 7]: 1.10%
Difference between 1st and 2nd tests (%) [2, 7]: −1.40%
1st eye test Calcified area on cornea (%) [2, 7]: 2.50%
2nd eye test Calcified area on cornea (%) [2, 8]: 2.20%
Difference between 1st and 2nd tests (%) [2, 8]: −2.18%
1st eye test Calcified area on cornea (%) [2, 8]: 4.38%
2nd eye test Calcified area on cornea (%) [2, 9]: 50.36%
Difference between 1st and 2nd tests (%) [2, 9]: −0.59%
1st eye test Calcified area on cornea (%) [2, 9]: 50.95%
2nd eye test Calcified area on cornea (%) [2, 10]: 29.27%
Difference between 1st and 2nd tests (%) [2, 10]: −3.16%
1st eye test Calcified area on cornea (%) [2, 10]: 32.43%
2nd eye test Calcified area on cornea (%) [2, 11]: 0.00%
Difference between 1st and 2nd tests (%) [2, 11]: −1.16%
1st eye test Calcified area on cornea (%) [2, 11]: 1.16%
2nd eye test Calcified area on cornea (%) [2, 12]: 1.00%
Difference between 1st and 2nd tests (%) [2, 12]: 0.49%
1st eye test Calcified area on cornea (%) [2, 12]: 0.51%
2nd eye test Calcified area on cornea (%) [2, 13]: 2.09%
Difference between 1st and 2nd tests (%) [2, 13]: −1.41%
1st eye test Calcified area on cornea (%) [2, 13]: 3.50%
2nd eye test Calcified area on cornea (%) [2, 14]: 4.69%
Difference between 1st and 2nd tests (%) [2, 14]: −10.21%
1st eye test Calcified area on cornea (%) [2, 14]: 14.90%
2nd eye test Calcified area on cornea (%) [2, 15]: 7.72%
Difference between 1st and 2nd tests (%) [2, 15]: 1.79%
1st eye test Calcified area on cornea (%) [2, 15]: 5.93%
2nd eye test Calcified area on cornea (%) [2, 16]: 38.86%
Difference between 1st and 2nd tests (%) [2, 16]: −1.99%
1st eye test Calcified area on cornea (%) [2, 16]: 40.85%
2nd eye test Calcified area on cornea (%) [2, 17]: 8.37%
Difference between 1st and 2nd tests (%) [2, 17]: 6.98%
1st eye test Calcified area on cornea (%) [2, 17]: 1.39%
2nd eye test Calcified area on cornea (%) [2, 18]: 7.29%
Difference between 1st and 2nd tests (%) [2, 18]: 0.08%
1st eye test Calcified area on cornea (%) [2, 18]: 7.21%
2nd eye test Calcified area on cornea (%) [2, 19]: 4.91%
Difference between 1st and 2nd tests (%) [2, 19]: 4.24%
1st eye test Calcified area on cornea (%) [2, 19]: 0.67%
2nd eye test Calcified area on cornea (%) [2, 20]: 3.73%
Difference between 1st and 2nd tests (%) [2, 20]: 3.24%
1st eye test Calcified area on cornea (%) [2, 20]: 0.49%
2nd eye test Calcified area on cornea (%) [2, 21]: 2.01%
Difference between 1st and 2nd tests (%) [2, 21]: 0.16%
1st eye test Calcified area on cornea (%) [2, 21]: 1.85%
2nd eye test Calcified area on cornea (%) [2, 22]: 2.09%
Difference between 1st and 2nd tests (%) [2, 22]: −0.41%
1st eye test Calcified area on cornea (%) [2, 22]: 2.50%
2nd eye test Calcified area on cornea (%) [2, 23]: 1.62%
Difference between 1st and 2nd tests (%) [2, 23]: 0.76%
1st eye test Calcified area on cornea (%) [2, 23]: 0.86%
2nd eye test Calcified area on cornea (%) [2, 24]: 1.54%
Difference between 1st and 2nd tests (%) [2, 24]: −0.08%
1st eye test Calcified area on cornea (%) [2, 24]: 1.62%
2nd eye test Calcified area on cornea (%) [2, 25]: 3.09%
Difference between 1st and 2nd tests (%) [2, 25]: 2.04%
1st eye test Calcified area on cornea (%) [2, 25]: 1.05%
2nd eye test Calcified area on cornea (%) [2, 26]: 2.24%
Difference between 1st and 2nd tests (%) [2, 26]: 2.24%
1st eye test Calcified area on cornea (%) [2, 26]: 0.00%
Ca × PO4 (mg/dL)^2: Linear Regression P [3]: P = 0.0158
